# Entries after “also recorded” stand apart in the source; their conditions may differ.
# Key:
# Type in all cases: cell-based, rat
# [1] = tested on: HCN cells (adult hippocampal neural progenitor cells); assay: Neuronal and astroglial differentiation of HCN cells by TuJ1/GFAP double-immunofluorescence staining; conditions: for Relative activity at ECmax: ECmax relative to Compound A, compound 2 (100) and DMSO (0 or no active, N/A), AP = Anti-proliferation
# Procedure: Cell Culture: Neural precursor cells isolated from the hippocampus of adult female Fischer 344 rats^(1) were maintained in N2 supplemented (Invitrogen) DMEM: Ham's F12 (Omega scientific) medium containing 20 ng/mL FGF-2 (PeproTech Inc.) HCN cells were expanded and maintained in an undifferentiated state on a polyornithine/laminin-coated dish in a defined serum-free growth medium (DMEM/F12 supplemented with N2 and 20 ng/ml bFGF) in a homogeneous monolayer. Neuronal and astroglial differentiation was analyzed directly with double-immunofluorescence staining of βIII tubulin (TuJ1) as a neuronal marker and glial fibrillary acidic protein (GFAP) as an astroglial marker. A combinatorial heterocycle library of 50,000 compounds was screened using undifferentiated, early passage HCN cells plated onto polyornithine/lamin-coated 384-well plates at a density of 6,000 cells/well in complete growth medium. After overnight incubation, the medium was exchanged with bFGF-free basal medium, and 5 μM of the compounds (final concentration) were added to each well. After treatment with compound for four days, cells were fixed and stained with βIII tubulin/TUJ1 and GFAP antibodies, the morphology of positively stained cells was analyzed, and the number of cells with the desired phenotypes was counted.
# (§1) Immunocytochenzistry: Cells were fixed with 4% paraformaldehyde for 30 min and washed with PBS, and then blocked for 1 hour at room temperature in PBS containing 0.3% Triton X-100 and 5% donkey serum (PBS-B). Samples were incubated in PBS-B containing dilutions (1:1500) of two primary antibodies for 24 hrs at 4° C., washed three times with PBS, and incubated w secondary antibodies conjugated to Cy3 (Jackson ImmunoResearch Laboratories, Inc.) Alexa Fluor 488 (Molecular Probe Inc.). The samples then were treated with 1 μg/mL 4′,6-diamidino-2-phenylindole (DAPI) for 30 min at room temperature, and then washed three times with PBS.
# A combinatorial heterocycle library of 50,000 compounds was screened using undifferentiated, early passage HCN cells plated onto polyornithine/lamin-coated 384-well plates at a density of 6,000 cells/well in complete growth medium. After overnight incubation, the medium was exchanged with bFGF-free basal medium, and 5 μM of the compounds (final concentration) were added to each well. After treatment with compound for four days, cells were fixed and stained with βIII tubulin/TUJ1 and GFAP antibodies, the morphology of positively stained cells was analyzed, and the number of cells with the desired phenotypes was counted.
# [2] = tested on: Sox2; assay: Semi-quantitative RT-PCR of marker genes: Sox2; conditions: HCN cells, 10 μM Compound A versus compound-free N2 medium
# [3] = tested on: HCN cells; assay: BrdU proliferation assay; conditions: HCN cells treated 5 hours in bFGF-free N2 medium; 15, 10, 5 μM Compound A or 1, 0.5, 0.25 μM RA; BrdU 2 hours
# Procedure: BrdU proliferation assay: Cells were treated with compounds (Compound A and
# (§2) RA). After 5 hours, the medium was changed and 10 μM of 5-bromo-2′-deoxy-uridine (BrdU) (final concentration) was added to each well. After treatment with BrdU for 2 hours, cells were fixed, washed three times with 01M Tris-buffer, and incubated in 2N HCl at 37° for 30 min. After treatment with 0.1M borate buffer (pH 8.5) for 10 min, cells were washed three times with PBS and treated with blocking buffer (PBS containing 0.3% Triton-X and 5% donkey serum) for 60 min. After overnight incubation with anti-BrdU (1:400) antibody, cells were washed with PBS and incubated with secondary antibody conjugated to Cy3 (1:1000) for 2 hours. After washing with PBS, BrdU-positive cells were counted.
# [4] = tested on: HCN cells; assay: Cytotoxic effects on HCN cells
# [5] = tested on: NeuroD1; assay: Semi-quantitative RT-PCR of marker genes: NeuroD1; conditions: HCN cells, 10 μM Compound A versus compound-free N2 medium
# [6] = tested on: NeuroD1 and NeuN; assay: BrdU labeling with immunocytochemistry to detect NeuroD1 and NeuN; conditions: HCN cells (FIG. 4)
# Procedure: as §1, §2
# [7] = tested on: HCN cells; assay: Astroglial differentiation of HCN cells induced by LIF/BMP2/FBS; conditions: 50 ng/ml LIF, 50 ng/ml BMP2 and 0.5% FBS; compound A 20 μM, RA 5 μM; listed as Compound A
# [8] = HCN cells treated with Compound A
Molecule,Relative activity at ECmax [1],"cells differentiated into neuronal cells (immunostaining with TuJ1 and characteristic neuronal morphology) [1, 8]","neuronal differentiation-inducing activity (screen and sublibrary) ([1]; HCN cells, bFGF-free basal medium, four days)","lineage specificity: GFAP-positive (astroglial) versus neuronal cells after treatment ([1]; four days in N2 media, 10 μM Compound A or 2 μM RA (FIG. 2))",staining for later stage neuronal markers neurofilament-H and Map2(a+b) ([1]; seven days of treatment with 10 μM Compound A),Sox2 (neural progenitor marker) mRNA level [2],cell proliferation (BrdU-positive cells) [3],"visible cytotoxic effects [4, 8]",NeuroD1 (neuronal cell marker) mRNA level [5],expression of neuron-specific marker genes NeuroD1 and NeuN [6],inhibition of astroglial differentiation induced by LIF and BMP2 [7],cytotoxicity ([4]; over 2 μM in growth factor (bFGF or LIF/BMP2)-free basal medium)
CCOC(=O)c1ccc(N(C)c2csc(-c3ccccc3)n2)cc1 [Compound 2],100,more than 90%,highest activity among the analogues tested,GFAP-positive cells were very rarely detected,positive staining,down-regulated,significantly slowed cell proliferation,without visible cytotoxic effects,up-regulated,induces expression of neuron-specific marker genes,can also inhibit astroglial differentiation; also recorded: can competitively suppress astrogliogenesis by LIF/BMP2/FBS in a dose-dependent manner,–
ethyl 4-(2-phenylthiazol-4-ylamino) benzoate [Compound 1],10,–,–,–,–,–,–,–,–,–,–,–
"CC1=C(/C=C/C(C)=C/C=C/C(C)=C/C(=O)O)C(C)(C)CCC1 [RA, retinoic acid, reference compound]",–,–,–,–,–,–,–,–,–,–,–,significant cytotoxicity

# Reference: patent US8105581B2, “Compositions and methods for inducing neuronal differentiation” (The Scripps Research Institute, priority 2005, dated 2012)
